Experimental data: paper PMC6789174 (Drug Design, Development and Therapy, 2019)
Converted amounts (≈) assume the structure as drawn.

How the values were obtained:
[1] = biological target: Butyrylcholinesterase (Homo sapiens, UniProt P06276); assay: Anticholinesterase assay; assay type: biochemical; conditions: for inhibition at 125 µg/mL / inhibition at 1000 µg/mL / inhibition at 250 µg/mL / inhibition at 500 µg/mL: read-out: %BChE Inhibition (mean ± SEM)
[2] = system: Staphylococcus aureus; assay: Anti-bacterial activity, agar well diffusion; assay type: cell-based; conditions: for MIC: read-out: MIC, Staphylococcus aureus; for zone of inhibition at 10 µg/mL / zone of inhibition at 20 µg/mL / zone of inhibition at 30 µg/mL: read-out: ZI (Zone of inhibition), Staphylococcus aureus
[3] = biological target: T1, porcine α-amylase (Sus scrofa, UniProt P00690); assay: biochemical; conditions: for inhibition at 125 µg/mL: read-out: %Inhibition (mean ± SEM), alpha amylase, concentration 125 µg/mL; for inhibition at 250 µg/mL: read-out: %Inhibition (mean ± SEM), alpha amylase, concentration 250 µg/mL; for inhibition at 1000 µg/mL: read-out: %Inhibition (mean ± SEM), alpha amylase, concentration 1000 µg/mL
T1 sequence (P00690 16-511): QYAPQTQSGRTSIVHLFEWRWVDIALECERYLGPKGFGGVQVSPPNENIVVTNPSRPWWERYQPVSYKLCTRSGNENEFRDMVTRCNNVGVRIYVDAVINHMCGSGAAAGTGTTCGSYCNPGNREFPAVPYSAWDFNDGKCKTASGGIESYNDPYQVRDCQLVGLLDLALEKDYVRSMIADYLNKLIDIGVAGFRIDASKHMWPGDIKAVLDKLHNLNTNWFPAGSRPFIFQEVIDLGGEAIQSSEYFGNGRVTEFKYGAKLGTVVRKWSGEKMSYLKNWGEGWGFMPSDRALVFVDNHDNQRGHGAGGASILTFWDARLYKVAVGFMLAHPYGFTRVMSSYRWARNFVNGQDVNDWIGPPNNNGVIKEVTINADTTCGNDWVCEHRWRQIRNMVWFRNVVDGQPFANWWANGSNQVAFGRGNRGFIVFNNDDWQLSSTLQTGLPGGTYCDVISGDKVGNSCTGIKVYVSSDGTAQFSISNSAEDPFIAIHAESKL

[4] = biological target: Acetylcholinesterase (Homo sapiens, UniProt P22303); assay: biochemical
Sequence of Acetylcholinesterase (P22303 32-614, species assumed): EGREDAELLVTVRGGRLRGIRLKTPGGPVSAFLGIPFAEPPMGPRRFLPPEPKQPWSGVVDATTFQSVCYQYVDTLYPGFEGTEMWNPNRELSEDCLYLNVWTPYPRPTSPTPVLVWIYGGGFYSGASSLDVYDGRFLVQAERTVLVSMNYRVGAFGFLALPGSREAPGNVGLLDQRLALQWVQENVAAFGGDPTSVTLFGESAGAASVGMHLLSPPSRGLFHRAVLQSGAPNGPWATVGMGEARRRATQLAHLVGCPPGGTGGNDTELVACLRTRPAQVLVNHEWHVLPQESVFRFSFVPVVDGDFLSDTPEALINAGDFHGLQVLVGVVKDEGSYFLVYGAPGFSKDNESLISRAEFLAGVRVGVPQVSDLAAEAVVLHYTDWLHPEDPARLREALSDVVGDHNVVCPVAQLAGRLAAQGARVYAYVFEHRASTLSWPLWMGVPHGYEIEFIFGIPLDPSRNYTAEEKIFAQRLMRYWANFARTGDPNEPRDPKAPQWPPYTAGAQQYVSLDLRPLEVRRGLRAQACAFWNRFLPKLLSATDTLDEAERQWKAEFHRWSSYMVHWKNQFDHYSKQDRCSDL

[5] = ABTS free radical scavenging
[6] = biological target: T2, glucose-6-phosphatase (Homo sapiens, UniProt P35575); assay: Glucose-6-phosphatase activity; assay type: biochemical; conditions: 33°C, pH 6.7, control 72.0
T2 sequence (P35575 1-357): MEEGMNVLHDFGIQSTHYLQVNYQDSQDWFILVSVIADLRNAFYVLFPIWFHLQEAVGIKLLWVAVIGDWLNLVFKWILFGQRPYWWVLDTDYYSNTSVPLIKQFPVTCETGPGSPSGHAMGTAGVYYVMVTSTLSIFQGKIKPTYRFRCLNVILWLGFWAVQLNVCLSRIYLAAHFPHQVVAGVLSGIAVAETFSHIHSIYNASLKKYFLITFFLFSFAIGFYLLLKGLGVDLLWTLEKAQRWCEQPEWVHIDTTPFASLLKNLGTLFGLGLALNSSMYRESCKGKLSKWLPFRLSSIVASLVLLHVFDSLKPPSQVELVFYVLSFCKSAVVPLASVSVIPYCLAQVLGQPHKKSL

[7] = DPPH free radical scavenging
[8] = system: Agrobacterium tumefaction; assay: Anti-bacterial activity, agar well diffusion; assay type: cell-based; conditions: for MIC: read-out: MIC, Agrobacterium tumefaction; for zone of inhibition at 10 µg/mL / zone of inhibition at 20 µg/mL / zone of inhibition at 30 µg/mL: read-out: ZI (Zone of inhibition), Agrobacterium tumefaction
[9] = system: Proteus vulgaris; assay: Anti-bacterial activity, agar well diffusion; assay type: cell-based; conditions: for MIC: read-out: MIC, Proteus vulgaris; for zone of inhibition at 10 µg/mL / zone of inhibition at 20 µg/mL / zone of inhibition at 30 µg/mL: read-out: ZI (Zone of inhibition), Proteus vulgaris
[10] = read-out: %AChE Inhibition (mean ± SEM)

Sequence of Butyrylcholinesterase (P06276 29-602): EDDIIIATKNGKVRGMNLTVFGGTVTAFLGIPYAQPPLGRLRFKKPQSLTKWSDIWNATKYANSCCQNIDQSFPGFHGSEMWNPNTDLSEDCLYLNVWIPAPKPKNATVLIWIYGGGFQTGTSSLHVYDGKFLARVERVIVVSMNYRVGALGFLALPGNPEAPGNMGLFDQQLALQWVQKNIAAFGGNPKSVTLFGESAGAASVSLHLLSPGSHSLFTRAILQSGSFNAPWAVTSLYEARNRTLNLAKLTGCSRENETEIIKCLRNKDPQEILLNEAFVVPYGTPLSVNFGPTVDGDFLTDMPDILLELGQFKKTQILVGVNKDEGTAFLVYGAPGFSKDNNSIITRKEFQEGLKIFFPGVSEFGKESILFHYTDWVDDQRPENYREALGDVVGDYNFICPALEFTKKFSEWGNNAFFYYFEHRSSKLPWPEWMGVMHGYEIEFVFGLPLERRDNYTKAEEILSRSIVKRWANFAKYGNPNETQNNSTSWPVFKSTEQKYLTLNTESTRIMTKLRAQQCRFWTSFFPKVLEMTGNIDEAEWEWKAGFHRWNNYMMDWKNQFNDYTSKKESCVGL

COc1ccc2c3c1O[C@H]1C[C@@H](O)C=C[C@@]31CCN(C)C2 [Galantamine, reference compound]
%BChE Inhibition (mean ± SEM) ([1]; concentration 500 μg/mL): 87.16 ± 1.23% | inhibition at 125 µg/mL [1]: 64.8 ± 0.73% | inhibition at 1000 µg/mL [1]: 92.3 ± 0.74%

S=C(NC(c1ccccn1)C(Cc1ccccc1)Cc1ccccc1)NC(c1ccccn1)C(Cc1ccccc1)Cc1ccccc1 (centres unmarked) [Compound I, 1,3-bis(2-benzyl-3-phenyl-1-(pyridine-2-yl)propyl)thiourea]
MIC [2]: 19.6 µg/mL (≈ 30.3 µM) | zone of inhibition at 10 µg/mL [2]: 13 mm | zone of inhibition at 20 µg/mL [2]: 16 mm | zone of inhibition at 30 µg/mL [2]: 18 mm | IC50 [3]: 130 µM | inhibition at 125 µg/mL [3]: 60.2 ± 1.03% | inhibition at 250 µg/mL [3]: 63.1 ± 1.41% | inhibition at 500 µg/mL ([3]; read-out: %Inhibition (mean ± SEM), alpha amylase, concentration 500 µg/mL): 68.1 ± 0.87% | inhibition at 1000 µg/mL [3]: 70.29 ± 0.31% | IC50 [4]: 1550 µM | %AChE Inhibition (mean ± SEM) ([4]; concentration 500 μg/mL): 55.59 ± 1.23% | inhibition at 125 µg/mL [4, 10]: 38.6 ± 1.33% | inhibition at 250 µg/mL [4, 10]: 46.1 ± 1.85% | inhibition at 1000 µg/mL [4, 10]: 68.1 ± 1.4% | ABTS IC50 [5]: 66 µg/mL | ABTS % I (mean ± S.E.M) ([5]; concentration 125 μg/mL): 77.55 ± 1.93% | ABTS % I (mean ± S.E.M) ([5]; concentration 250 μg/mL): 78.21 ± 1.21% | ABTS % I (mean ± S.E.M) ([5]; concentration 500 μg/mL): 80.16 ± 2.01% | ABTS % I (mean ± S.E.M) ([5]; concentration 1000 μg/mL): 81.67 ± 1.20% | Total Activity of glucose-6-phosphatase ([6]; concentration 125 µg/mL): 34.11 mg of P released per hour | Total Activity of glucose-6-phosphatase ([6]; concentration 250 µg/mL): 31.62 mg of P released per hour | Total Activity of glucose-6-phosphatase ([6]; concentration 500 µg/mL): 25.31 mg of P released per hour | IC50 [1]: 309 µM | inhibition at 125 µg/mL [1]: 48.1 ± 1.08% | inhibition at 250 µg/mL [1]: 51.4 ± 2.05% | inhibition at 500 µg/mL [1]: 56.3 ± 1.66% | inhibition at 1000 µg/mL [1]: 57.81 ± 0.54% | DPPH IC50 [7]: 67 µg/mL | DPPH % I (mean ± S.E.M) ([7]; concentration 125 μg/mL): 78.55 ± 1.73% | DPPH % I (mean ± S.E.M) ([7]; concentration 250 μg/mL): 80.21 ± 1.21% | DPPH % I (mean ± S.E.M) ([7]; concentration 500 μg/mL): 82.16 ± 1.01% | DPPH % I (mean ± S.E.M) ([7]; concentration 1000 μg/mL): 86.67 ± 1.20% | MIC [8]: 4.02 µg/mL (≈ 6.21 µM) | zone of inhibition at 10 µg/mL [8]: 21 mm | zone of inhibition at 20 µg/mL [8]: 24 mm | zone of inhibition at 30 µg/mL [8]: 26 mm | MIC [9]: 9.76 µg/mL (≈ 15.1 µM) | zone of inhibition at 10 µg/mL [9]: 15 mm | zone of inhibition at 20 µg/mL [9]: 22 mm | zone of inhibition at 30 µg/mL [9]: 24 mm

S=C(Nc1ccccc1)NC(c1ccccn1)C(Cc1ccccc1)Cc1ccccc1 (centres unmarked) [Compound III, 1-(2-benzyl-3-phenyl-1-(pyridine-2-yl)propyl)-3-phenylthiourea]
MIC [2]: 14.9 µg/mL (≈ 34.1 µM) | zone of inhibition at 10 µg/mL [2]: 15 mm | zone of inhibition at 20 µg/mL [2]: 16 mm | zone of inhibition at 30 µg/mL [2]: 19 mm | IC50 [3]: 263 µM | %Inhibition (mean ± SEM), alpha amylase ([3]; concentration 250 μg/mL): 57.91 ± 0.43% | inhibition at 125 µg/mL [3]: 50.1 ± 2.11% | inhibition at 250 µg/mL [3]: 62.5 ± 1.24% | inhibition at 1000 µg/mL [3]: 65.8 ± 1.13% | IC50 [4]: 144 µM | inhibition at 125 µg/mL [4, 10]: 62.2 ± 1.12% | inhibition at 250 µg/mL [4, 10]: 66.5 ± 2.08% | inhibition at 500 µg/mL [4, 10]: 75.7 ± 1.15% | inhibition at 1000 µg/mL [4, 10]: 84.3 ± 1.12% | ABTS IC50 [5]: 80 µg/mL | ABTS % I (mean ± S.E.M) ([5]; concentration 125 μg/mL): 64.77 ±0.087% | ABTS % I (mean ± S.E.M) ([5]; concentration 250 μg/mL): 66.25 ±0.123% | ABTS % I (mean ± S.E.M) ([5]; concentration 500 μg/mL): 68.27 ± 0.532% | ABTS % I (mean ± S.E.M) ([5]; concentration 1000 μg/mL): 69.11 ± 0.234% | Total Activity of glucose-6-phosphatase ([6]; concentration 125 µg/mL): 32.04 mg of P released per hour | Total Activity of glucose-6-phosphatase ([6]; concentration 250 µg/mL): 28.35 mg of P released per hour | Total Activity of glucose-6-phosphatase ([6]; concentration 500 µg/mL): 27.10 mg of P released per hour | IC50 [1]: 183 µM | inhibition at 125 µg/mL [1]: 58.3 ± 1.06% | inhibition at 250 µg/mL [1]: 61.8 ± 1.54% | inhibition at 500 µg/mL [1]: 63.8 ± 1.53% | inhibition at 1000 µg/mL [1]: 68.5 ± 1.07% | DPPH IC50 [7]: 79 µg/mL | DPPH % I (mean ± S.E.M) ([7]; concentration 125 μg/mL): 61.14±0.177% | DPPH % I (mean ± S.E.M) ([7]; concentration 250 μg/mL): 64.74 ± 0.267% | DPPH % I (mean ± S.E.M) ([7]; concentration 500 μg/mL): 66.07 ± 0.283% | DPPH % I (mean ± S.E.M) ([7]; concentration 1000 μg/mL): 67.45 ± 0.095% | MIC [8]: 11.6 µg/mL (≈ 26.6 µM) | zone of inhibition at 10 µg/mL [8]: 15 mm | zone of inhibition at 20 µg/mL [8]: 20 mm | zone of inhibition at 30 µg/mL [8]: 26 mm | MIC [9]: 15 µg/mL (≈ 34.2 µM) | zone of inhibition at 10 µg/mL [9]: 12 mm | zone of inhibition at 20 µg/mL [9]: 16 mm | zone of inhibition at 30 µg/mL [9]: 22 mm
